According to ChEMBL document CHEMBL1152560, “Substituted 2-arylbenzothiazoles as kinase inhibitors: hit-to-lead optimization” (Bioorg Med Chem, 2009):

Tests used:
[1] = biological target: T1, Eukaryotic translation initiation factor 2-alpha kinase 3 (Homo sapiens) (UniProt Q9NZJ5); test: Residual activity of EIF2AK3 at 0.1 uM by microplate scintillation counting
T1 sequence (whole entry): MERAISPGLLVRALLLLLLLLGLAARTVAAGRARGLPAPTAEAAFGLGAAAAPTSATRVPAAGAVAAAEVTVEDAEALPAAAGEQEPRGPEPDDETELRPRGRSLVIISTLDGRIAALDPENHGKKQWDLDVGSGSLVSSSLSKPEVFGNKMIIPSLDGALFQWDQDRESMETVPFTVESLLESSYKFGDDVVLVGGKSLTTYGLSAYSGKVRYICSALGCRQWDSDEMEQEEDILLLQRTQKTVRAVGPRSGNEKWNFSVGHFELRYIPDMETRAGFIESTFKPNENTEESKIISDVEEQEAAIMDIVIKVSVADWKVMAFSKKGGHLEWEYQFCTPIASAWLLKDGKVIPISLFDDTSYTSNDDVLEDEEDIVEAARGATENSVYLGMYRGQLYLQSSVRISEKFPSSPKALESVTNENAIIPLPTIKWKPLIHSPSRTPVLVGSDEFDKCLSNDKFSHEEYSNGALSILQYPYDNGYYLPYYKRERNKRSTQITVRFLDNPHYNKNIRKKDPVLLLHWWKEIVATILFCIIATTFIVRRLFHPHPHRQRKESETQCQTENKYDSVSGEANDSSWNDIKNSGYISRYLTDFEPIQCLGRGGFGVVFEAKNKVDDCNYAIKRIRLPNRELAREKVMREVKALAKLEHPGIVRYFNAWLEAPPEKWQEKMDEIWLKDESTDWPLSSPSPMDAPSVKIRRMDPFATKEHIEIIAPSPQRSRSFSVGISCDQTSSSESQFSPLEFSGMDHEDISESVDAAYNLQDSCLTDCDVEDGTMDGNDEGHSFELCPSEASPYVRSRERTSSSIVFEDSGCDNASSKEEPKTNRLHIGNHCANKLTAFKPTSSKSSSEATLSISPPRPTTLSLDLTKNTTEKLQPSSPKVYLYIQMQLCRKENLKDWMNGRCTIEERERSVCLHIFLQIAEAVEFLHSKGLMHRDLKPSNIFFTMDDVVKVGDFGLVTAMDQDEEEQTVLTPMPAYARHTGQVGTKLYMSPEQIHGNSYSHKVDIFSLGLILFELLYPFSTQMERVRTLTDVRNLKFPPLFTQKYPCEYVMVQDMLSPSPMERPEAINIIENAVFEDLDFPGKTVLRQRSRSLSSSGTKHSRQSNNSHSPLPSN

[2] = biological target: Non-receptor tyrosine-protein kinase TYK2 (Homo sapiens) (UniProt P29597); test: Residual activity of TYK2 at 1 uM by microplate scintillation counting
Sequence of Non-receptor tyrosine-protein kinase TYK2 (Homo sapiens) (P29597 whole entry): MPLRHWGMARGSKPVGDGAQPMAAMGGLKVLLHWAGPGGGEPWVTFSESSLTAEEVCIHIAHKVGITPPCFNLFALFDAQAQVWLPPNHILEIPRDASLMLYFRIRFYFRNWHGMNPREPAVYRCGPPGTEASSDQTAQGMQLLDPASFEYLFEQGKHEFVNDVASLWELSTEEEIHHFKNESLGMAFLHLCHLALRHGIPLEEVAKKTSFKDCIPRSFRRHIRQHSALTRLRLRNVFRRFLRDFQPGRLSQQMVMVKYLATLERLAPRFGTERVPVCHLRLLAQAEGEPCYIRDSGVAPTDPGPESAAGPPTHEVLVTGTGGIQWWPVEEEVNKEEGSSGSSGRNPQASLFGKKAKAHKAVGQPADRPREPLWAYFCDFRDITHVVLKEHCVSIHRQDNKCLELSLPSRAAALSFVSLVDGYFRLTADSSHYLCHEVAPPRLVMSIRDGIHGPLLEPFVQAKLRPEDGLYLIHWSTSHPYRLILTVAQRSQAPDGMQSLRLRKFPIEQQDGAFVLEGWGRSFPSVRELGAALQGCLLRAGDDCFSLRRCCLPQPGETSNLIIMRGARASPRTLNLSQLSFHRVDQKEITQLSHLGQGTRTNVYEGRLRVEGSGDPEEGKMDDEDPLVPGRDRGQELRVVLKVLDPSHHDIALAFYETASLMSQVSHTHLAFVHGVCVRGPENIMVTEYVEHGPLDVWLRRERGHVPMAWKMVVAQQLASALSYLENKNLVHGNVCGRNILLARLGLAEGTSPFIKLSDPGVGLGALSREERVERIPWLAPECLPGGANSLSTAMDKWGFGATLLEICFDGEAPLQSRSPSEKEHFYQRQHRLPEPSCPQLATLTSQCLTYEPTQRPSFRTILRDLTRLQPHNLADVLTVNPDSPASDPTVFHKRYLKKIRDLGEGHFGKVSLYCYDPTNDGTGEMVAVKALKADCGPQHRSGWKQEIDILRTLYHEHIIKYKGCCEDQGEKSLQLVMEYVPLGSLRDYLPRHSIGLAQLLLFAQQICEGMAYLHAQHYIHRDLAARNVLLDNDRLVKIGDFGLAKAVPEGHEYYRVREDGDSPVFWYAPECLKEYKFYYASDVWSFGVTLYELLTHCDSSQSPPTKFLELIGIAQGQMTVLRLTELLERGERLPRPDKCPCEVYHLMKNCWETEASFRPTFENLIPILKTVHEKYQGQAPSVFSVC

[3] = test system: Epidermal growth factor receptor (Homo sapiens), P00533 [L858R,T790M]; test: Residual activity of EGFR T790M/L858R mutant at 0.1 uM by microplate scintillation counting
[4] = biological target: Casein kinase I isoform gamma-3 (Homo sapiens) (UniProt Q9Y6M4); test: Residual activity of CK1gamma3 at 1 uM by microplate scintillation counting
[5] = biological target: RAC-alpha serine/threonine-protein kinase (Homo sapiens) (UniProt P31749); test: Residual activity of AKT1 at 10 uM by microplate scintillation counting
Sequence of RAC-alpha serine/threonine-protein kinase (Homo sapiens) (P31749 whole entry): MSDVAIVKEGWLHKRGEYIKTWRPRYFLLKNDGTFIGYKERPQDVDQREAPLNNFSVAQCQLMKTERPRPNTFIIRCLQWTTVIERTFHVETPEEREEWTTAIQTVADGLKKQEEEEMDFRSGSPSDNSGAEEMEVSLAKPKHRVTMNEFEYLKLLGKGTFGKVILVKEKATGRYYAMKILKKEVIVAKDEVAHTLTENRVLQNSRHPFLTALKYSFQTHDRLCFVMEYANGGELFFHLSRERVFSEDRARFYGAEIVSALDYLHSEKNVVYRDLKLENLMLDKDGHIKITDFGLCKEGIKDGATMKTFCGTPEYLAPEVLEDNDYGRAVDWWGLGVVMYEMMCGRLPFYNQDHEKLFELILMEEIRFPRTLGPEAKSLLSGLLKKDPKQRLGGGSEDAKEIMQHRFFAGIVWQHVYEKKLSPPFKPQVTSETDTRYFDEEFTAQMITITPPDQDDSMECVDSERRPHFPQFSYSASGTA

[6] = biological target: Serine/threonine-protein kinase N2 (Homo sapiens) (UniProt Q16513); test: Residual activity of PRK2 at 0.1 uM by microplate scintillation counting
Sequence of Serine/threonine-protein kinase N2 (Homo sapiens) (Q16513 whole entry, looked up): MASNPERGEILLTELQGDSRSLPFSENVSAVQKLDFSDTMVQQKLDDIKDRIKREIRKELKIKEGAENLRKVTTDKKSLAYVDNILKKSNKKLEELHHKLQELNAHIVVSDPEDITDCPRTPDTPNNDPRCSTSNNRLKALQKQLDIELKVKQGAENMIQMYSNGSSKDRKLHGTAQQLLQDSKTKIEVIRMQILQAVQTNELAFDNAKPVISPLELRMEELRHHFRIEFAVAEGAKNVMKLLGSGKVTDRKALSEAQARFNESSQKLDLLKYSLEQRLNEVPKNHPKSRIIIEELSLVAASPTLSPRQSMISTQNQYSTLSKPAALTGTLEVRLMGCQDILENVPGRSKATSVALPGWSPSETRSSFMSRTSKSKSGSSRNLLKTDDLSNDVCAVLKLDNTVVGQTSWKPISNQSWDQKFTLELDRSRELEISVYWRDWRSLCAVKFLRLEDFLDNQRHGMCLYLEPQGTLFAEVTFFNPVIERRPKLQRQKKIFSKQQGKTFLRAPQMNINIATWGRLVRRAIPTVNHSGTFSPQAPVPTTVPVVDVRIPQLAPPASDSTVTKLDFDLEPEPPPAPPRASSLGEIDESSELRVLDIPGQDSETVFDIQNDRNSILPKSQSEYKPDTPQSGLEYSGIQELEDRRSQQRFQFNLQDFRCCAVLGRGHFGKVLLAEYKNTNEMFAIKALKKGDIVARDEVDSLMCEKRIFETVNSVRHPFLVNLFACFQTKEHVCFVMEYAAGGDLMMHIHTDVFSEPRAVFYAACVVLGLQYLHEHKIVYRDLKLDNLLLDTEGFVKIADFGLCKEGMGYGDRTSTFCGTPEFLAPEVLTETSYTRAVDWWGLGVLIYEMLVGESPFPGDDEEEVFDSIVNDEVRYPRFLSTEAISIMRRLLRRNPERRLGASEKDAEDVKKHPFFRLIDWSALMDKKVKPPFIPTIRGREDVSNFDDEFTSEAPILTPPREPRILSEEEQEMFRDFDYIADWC

[7] = biological target: Calcium/calmodulin-dependent protein kinase type II subunit alpha (Homo sapiens) (UniProt Q9UQM7); test: Residual activity of CAMK2A at 10 uM by microplate scintillation counting
Sequence of Calcium/calmodulin-dependent protein kinase type II subunit alpha (Homo sapiens) (Q9UQM7 whole entry): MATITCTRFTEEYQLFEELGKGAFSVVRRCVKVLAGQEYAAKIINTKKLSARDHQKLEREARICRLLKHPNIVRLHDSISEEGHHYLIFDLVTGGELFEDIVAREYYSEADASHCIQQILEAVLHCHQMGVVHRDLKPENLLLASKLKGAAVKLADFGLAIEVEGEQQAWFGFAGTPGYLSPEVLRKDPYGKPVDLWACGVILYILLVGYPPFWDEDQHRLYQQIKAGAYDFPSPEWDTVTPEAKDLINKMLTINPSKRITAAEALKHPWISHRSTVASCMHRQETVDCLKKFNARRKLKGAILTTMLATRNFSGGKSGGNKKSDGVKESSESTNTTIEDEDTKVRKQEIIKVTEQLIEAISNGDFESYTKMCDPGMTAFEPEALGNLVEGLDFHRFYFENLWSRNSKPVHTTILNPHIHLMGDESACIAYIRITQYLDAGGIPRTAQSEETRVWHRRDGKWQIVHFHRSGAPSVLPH

[8] = biological target: Protein-tyrosine kinase 6 (Homo sapiens) (UniProt Q13882); test: Residual activity of BRK at 1 uM by microplate scintillation counting
[9] = biological target: PAS domain-containing serine/threonine-protein kinase (Homo sapiens) (UniProt Q96RG2); test: Residual activity of PASK at 0.1 uM by microplate scintillation counting
Angiopoietin-1 receptor = Angiopoietin-1 receptor (Homo sapiens, UniProt Q02763); test: Inhibition of TIE2 by microplate scintillation counting
[10] = biological target: CDC42BPA protein (Homo sapiens) (UniProt B9EGA7); test: Residual activity of CDC42BPA at 1 uM by microplate scintillation counting
[11] = biological target: Protein kinase C beta type (Homo sapiens) (UniProt P05771); test: Residual activity of PKCbeta2 at 0.1 uM by microplate scintillation counting
Sequence of Protein kinase C beta type (Homo sapiens) (P05771 2-671 limits assumed): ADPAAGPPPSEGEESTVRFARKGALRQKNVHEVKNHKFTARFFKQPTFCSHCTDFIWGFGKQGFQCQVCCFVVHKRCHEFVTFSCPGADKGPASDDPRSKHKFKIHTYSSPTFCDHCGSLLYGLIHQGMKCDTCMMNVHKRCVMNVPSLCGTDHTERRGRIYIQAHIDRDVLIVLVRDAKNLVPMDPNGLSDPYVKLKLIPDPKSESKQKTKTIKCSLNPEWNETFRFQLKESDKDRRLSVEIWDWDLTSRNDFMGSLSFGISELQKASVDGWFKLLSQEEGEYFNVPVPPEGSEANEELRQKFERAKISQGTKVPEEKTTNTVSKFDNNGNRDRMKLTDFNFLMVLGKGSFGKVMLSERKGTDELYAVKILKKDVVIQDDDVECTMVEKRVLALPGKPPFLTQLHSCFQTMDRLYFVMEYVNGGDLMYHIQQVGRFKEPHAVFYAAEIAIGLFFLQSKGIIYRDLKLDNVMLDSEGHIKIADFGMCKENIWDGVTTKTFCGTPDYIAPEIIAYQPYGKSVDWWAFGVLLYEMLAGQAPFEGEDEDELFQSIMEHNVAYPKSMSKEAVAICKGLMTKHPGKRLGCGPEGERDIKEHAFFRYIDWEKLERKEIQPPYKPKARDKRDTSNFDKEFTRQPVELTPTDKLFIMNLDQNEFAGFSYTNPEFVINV

[12] = biological target: Serine/threonine-protein kinase 33 (Homo sapiens) (UniProt Q9BYT3); test: Residual activity of STK33 at 0.1 uM by microplate scintillation counting
[13] = biological target: Activated CDC42 kinase 1 (Homo sapiens) (UniProt Q07912); test: Residual activity of ACK1 at 0.1 uM by microplate scintillation counting
Sequence of Activated CDC42 kinase 1 (Homo sapiens) (Q07912 whole entry, looked up): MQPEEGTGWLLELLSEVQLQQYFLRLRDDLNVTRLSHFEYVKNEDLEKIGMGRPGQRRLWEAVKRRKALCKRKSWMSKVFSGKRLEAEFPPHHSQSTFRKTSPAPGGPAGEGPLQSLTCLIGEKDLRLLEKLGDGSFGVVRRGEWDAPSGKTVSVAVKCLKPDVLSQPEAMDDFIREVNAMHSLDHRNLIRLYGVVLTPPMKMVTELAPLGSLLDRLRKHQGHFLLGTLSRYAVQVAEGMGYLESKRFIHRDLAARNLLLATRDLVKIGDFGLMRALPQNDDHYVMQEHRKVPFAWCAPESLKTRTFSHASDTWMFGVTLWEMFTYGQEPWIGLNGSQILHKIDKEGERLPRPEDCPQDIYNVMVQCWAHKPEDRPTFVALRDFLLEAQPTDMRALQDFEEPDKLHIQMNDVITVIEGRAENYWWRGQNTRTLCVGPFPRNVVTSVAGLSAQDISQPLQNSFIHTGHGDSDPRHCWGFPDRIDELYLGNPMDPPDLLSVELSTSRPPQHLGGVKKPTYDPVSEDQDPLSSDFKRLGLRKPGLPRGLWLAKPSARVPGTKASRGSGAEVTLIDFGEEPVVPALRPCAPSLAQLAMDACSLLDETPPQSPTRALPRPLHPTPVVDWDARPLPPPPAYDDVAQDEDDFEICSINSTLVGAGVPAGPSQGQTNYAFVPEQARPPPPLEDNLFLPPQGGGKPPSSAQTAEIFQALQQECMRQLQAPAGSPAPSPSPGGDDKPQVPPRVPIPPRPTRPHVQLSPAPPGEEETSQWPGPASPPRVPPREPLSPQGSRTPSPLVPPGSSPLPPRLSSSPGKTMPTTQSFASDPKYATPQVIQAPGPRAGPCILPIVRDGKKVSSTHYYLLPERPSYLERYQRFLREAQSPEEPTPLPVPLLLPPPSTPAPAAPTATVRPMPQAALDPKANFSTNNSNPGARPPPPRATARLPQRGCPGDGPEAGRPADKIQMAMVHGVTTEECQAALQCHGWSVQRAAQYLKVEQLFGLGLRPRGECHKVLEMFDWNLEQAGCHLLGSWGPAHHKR

[14] = biological target: T2, Serine/threonine-protein kinase PLK4 (Homo sapiens) (UniProt O00444); test: Residual activity of SAK at 0.1 uM by microplate scintillation counting
T2 sequence (whole entry): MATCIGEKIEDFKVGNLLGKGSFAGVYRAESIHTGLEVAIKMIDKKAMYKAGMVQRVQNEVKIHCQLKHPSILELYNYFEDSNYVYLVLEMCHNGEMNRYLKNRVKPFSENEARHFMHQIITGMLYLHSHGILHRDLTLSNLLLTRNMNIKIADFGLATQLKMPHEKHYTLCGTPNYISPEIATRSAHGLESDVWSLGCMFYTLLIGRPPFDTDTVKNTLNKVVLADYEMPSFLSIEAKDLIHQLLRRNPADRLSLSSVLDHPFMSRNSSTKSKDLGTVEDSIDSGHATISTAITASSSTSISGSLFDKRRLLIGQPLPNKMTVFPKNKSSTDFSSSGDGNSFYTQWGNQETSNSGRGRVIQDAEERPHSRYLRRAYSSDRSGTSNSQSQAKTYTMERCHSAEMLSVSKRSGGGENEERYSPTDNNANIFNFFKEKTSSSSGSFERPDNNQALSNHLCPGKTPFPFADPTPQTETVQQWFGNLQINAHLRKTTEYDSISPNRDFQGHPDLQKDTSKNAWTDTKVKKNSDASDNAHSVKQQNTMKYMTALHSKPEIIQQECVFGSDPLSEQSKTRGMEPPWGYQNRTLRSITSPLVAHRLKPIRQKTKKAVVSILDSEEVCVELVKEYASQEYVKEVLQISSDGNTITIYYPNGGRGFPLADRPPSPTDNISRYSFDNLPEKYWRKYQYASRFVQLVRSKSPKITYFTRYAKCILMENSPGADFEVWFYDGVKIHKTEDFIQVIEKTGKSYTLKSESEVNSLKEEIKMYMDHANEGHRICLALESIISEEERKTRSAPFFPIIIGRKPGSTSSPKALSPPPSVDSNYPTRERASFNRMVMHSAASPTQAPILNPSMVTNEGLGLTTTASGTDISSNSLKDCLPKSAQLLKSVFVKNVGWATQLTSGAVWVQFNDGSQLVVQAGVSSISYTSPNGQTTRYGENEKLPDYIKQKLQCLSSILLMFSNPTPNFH

Row | residual activity [1] [%] | residual activity [2] [%] | residual activity [3] [%] | residual activity [4] [%] | residual activity [5] [%] | residual activity [6] [%] | residual activity [7] [%] | residual activity [8] [%] | residual activity [9] [%] | IC50 (Angiopoietin-1 receptor) [µM] | residual activity [10] [%] | residual activity [11] [%] | residual activity [12] [%] | residual activity [13] [%] | residual activity [14] [%] | SMILES
1 | 102 | 90 | 98 | 88 | 87 | 99 | 11 | 8 | 99 | 0.072 | 117 | 99 | 96 | 105 | 56 | COc1cc2c(Oc3ccc(-c4nc5ccccc5s4)cc3)ncnc2cc1OCCCN1CCCC1
2 | 90 | 93 | 100 | 83 | 120 | 65 | 10 | 7 | 92 | 0.044 | 117 | 101 | 81 | 96 | 63 | COc1cc2c(Oc3ccc(-c4nc5ccccc5s4)cc3)ncnc2cc1OCCCN1CCN(C)CC1
3 | 101 | 92 | 101 | 92 | 105 | 72 | 21 | 4 | 89 | 0.088 | 89 | 87 | 85 | 87 | 80 | COc1cc2c(Oc3ccc(-c4nc5ccccc5s4)cc3F)ncnc2cc1OCCCN1CCN(C)CC1
